Measured values: US12642780B2, “Methods and compositions to treat and prevent viral infections and acute respiratory distress syndrome” (priority 2020, dated 2026)
Where two headings read alike, the source gives them in different places.

Key:
[1] = test system: Il6 and Il1b promoters; experiment: ChIP-qPCR of transcription factor recruitment to Il6 and Il1b promoters in BMDM; format: cell-based, mouse; settings: LPS
Method: Cells were fixed using 0.75% formaldehyde for 10 min followed by 0.125 M glycine to stop the crosslinking reaction. […] Nuclei were pelleted at 1,000 g in a cold microfuge and resuspended in B buffer (50 mM Tris, pH 8.0, 5 mM EDTA and 1% SDS plus inhibitors). […] Nuclear extracts were immunoprecipitated with respective antibodies. The co-immunoprecipitated material was then subjected to qPCR analysis using specific primers.

[2] = test system: NLRP3 inflammasome; experiment: NLRP3 inflammasome activation in human macrophages; format: cell-based; settings: LPS 20 ng/ml 3 hrs, ATP 2 mM 30 min, metformin 0.5 mM 16 hrs
[3] = test system: NLRP3 inflammasome; experiment: NLRP3 inflammasome activation in LPS-primed mouse microglia; format: cell-based; settings: different NLRP3 activators, metformin 0.5 mM 16 hrs
[4] = test system: alum induced peritonitis model; experiment: Alum-induced peritonitis; format: in vivo, mouse
[5] = test system: BMDM; experiment: Mitochondrial function in BMDM (TMRM, MitoSOX, cellular ATP); format: cell-based, mouse
[6] = test system: mtDNA; experiment: mtDNA synthesis and cytosolic Ox-mtDNA in BMDM; format: cell-based, mouse
Method: To image mtDNA synthesis, BMDM were stimulated with LPS ([…]) for 4 hrs in the presence of 10 μM EdU. Cells were then washed twice with sterile PBS and fixed in 4% PFA for 15 min followed by permeabilization with 0.02% Triton X-100 for 10 min. EdU staining was performed using a Click-iT EdU Microplate Assay Kit (Thermo Fisher Scientific). In brief, BMDMs were postfixed in EdU fixative for 5 min, and equal volumes of the EdU reaction cocktail, which was prepared immediately before use, were added to each chamber and left overnight. Primary antibody against the mitochondrial marker Atp5b was included in the EdU reaction cocktail. The next day, the BMDM were washed three times with PBS followed by incubation with secondary Alexa antibodies from Life Technologies or Jackson Immuno Research Laboratories. DAPI was used for nuclear counterstaining.
Total DNA was isolated using Allprep DNA/RNA Mini Kit (catalogue 80204, Qiagen) according to manufacturer's instructions. mtDNA was quantified by qPCR using primers specific for the mitochondrial D-loop region, cytochrome c oxidase (COX) or a specific region of mtDNA that is not inserted into nuclear DNA (non-NUMT) (Zhong et al., 2018). Nuclear DNA encoding Teri, 18S ribosomal RNA and B2m was used for normalization.
Cellular fractionation was performed using Mitochondrial Isolation kit (89874, ThermoScientific) according to manufacturer's instructions. Cytosolic mtDNA was analyzed as described (Nakahira et al., 2011). For the measurement of Ox-mtDNA, mtDNA was first purified using Allprep DNA/RNA mini kit (Qiagen) from the cytosolic fraction of BMDM as described above. The 8-OH-dG content of the mtDNA was then quantified using an 8-OHdG quantification kit (ab201734), per manufacturer's instructions.

[7] = test system: POLγ; experiment: POLγ activity assay in lysates of treated macrophages; format: cell-based, mouse
[8] = test system: LPS-induced ARDS; settings: for protection from LPS-induced ARDS: last dose 30 min prior to 5 mg/kg LPS
Method: Briefly, 5 mg/kg LPS or vehicle was i.p. injected and the mice were euthanized 8, 24 or 48 hrs later. […] In all cases, at the experimental endpoint the lungs were inflated with cold PBS, excised and fixed in 10% formalin for histological evaluation.
Paired antibodies (capture and detection) and standard recombinant mouse IL-1β (R&D Systems), and TNF and IL-6 (eBioscience) were used to determine mouse cytokine concentrations according to manufacturer's instructions.
Lungs were fixed in 10% formalin for 24 hrs and embedded in paraffin, sectioned and stained with hematoxylin and eosin (H&E) to evaluate gross morphology and lung damage and inflammation; and with Sirius red to determine collagen buildup. Ten to twelve H&E stained sections from each animal were scored for the degree of lung inflammation and damage by two blinded mouse lung pathology experts as described (Jupelli et al., 2013), and the scores were averaged. Briefly, the degree of lung inflammation was assigned an arbitrary score of 0 (normal=no inflammation, no airway thickening, no edema), 1 (minimal cellular infiltration, and minimal edema), 2 (mild-moderate cellular infiltration, plus mild airway thickening and mild edema), 3 (severe cellular infiltration, plus diffuse airway thickening and severe edema) in 10-12 fields per mouse.
Lung sections were subjected to incubation with antibodies specific for F4/80 (macrophage marker), myeloperoxidase (MPO, neutrophil marker), c/EBPb, NFATc2 and NFATc3. Stained areas were quantified using ImageJ software.
NLRP3 inflammasome activation in the lung was detected by immunofluorescence co-staining with F4/80 and ASC antibodies. Briefly, lung sections were hydrated and boiled at 96° C. in citrate buffer 1× for 20 min. Sections were blocked with 2% BSA/PBS1X containing 1% normal horse serum for 1 hr at room temperature. F4/80 and ASC antibodies were incubated in blocking solution overnight at 4° C. After washing, Alexa secondary antibodies were added and the sections were incubated in 2% BSA/PBS1X for 1 hr at room temperature. Sections were washed, incubated with DAPI, and mounted using FluoSave. Sections were imaged through a Leica SP5 confocal microscope. The percentage of F4/80^+ cells with ASC specks were quantified in 18-26 high magnification fields from 4-5 mice per group.

[9] = test system: SARS-CoV-2 USA-WA1/2020 strain; experiment: SARS-CoV-2 infection in hACE2 mice; format: in vivo, mouse
[10] = test system: BMDM; settings: for recruitment of DRP1 to mitochondria / recruitment of p62 to mitochondria: metformin 0.5 mM
[11] = in vivo; settings: male, C57BL/6, mouse, ip, 50 mg/kg
Method: (§1) Pooled mice plasma (CD-1 (ICR) MSE00PLK2, BioIVT) was selected as blank matrix for standards and quality control samples. Sample preparation procedure was adopted from literatures with minor modifications. […] The samples mix were vortexed for 2 minutes then sonicated for 1 min and centrifuged at 6100 g for 10 min. Supernatants were transferred into a new set 96-well plate, and 10 μL were injected for LC-MS/MS analysis. […] The solution was then serially diluted with 50% methanol-water to obtain standard working solutions over a concentration range of 10-2000 ng/ml. The quality control (QC) samples were prepared in three concentrations: 10, 100, and 500 ng/ml.
(§2) LC-MS/MS system was performed using an Agilent 1290 Infinity HPLC and HiP ALS (Autosampler) coupled with AB Sciex 6500 Q-Trap mass spectrometer. All data were acquired using Analyst (AB SCIEX v1.7.1). […] The mobile phase A was 20 mM ammonium acetate buffer in water and 100% acetonitrile as mobile phase B. A total 7 min gradient run with a flow rate of 0.8 ml/min was implemented. […] The mass spectrometer was operated in a positive mode using scheduled multiple reaction morning (sMRM).

[12] = LC-MS/MS metformin concentration in plasma; settings: 24 hrs after LPS challenge, oral and i.p.
Method: as §1, §2

[13] = LPS-primed BMDM, metformin 0.5 mM 16 h
[14] = BMDM, LPS 4 hrs, metformin 0.5 mM 16 hrs
[15] = Cmpk2ΔMye mice, 50 mg/kg metformin
[16] = therapeutic, 50 mg/kg i.p. after LPS

CN(C)C(=N)NC(=N)N [metformin, N,N-dimethylbiguanide]
c/EBPβ and NFATc1-4 recruitment to the Il6 promoter [1]: inhibited | Casp1 p20 and IL-1β secretion [2]: abrogated | Casp1 p20 and IL-1β secretion [3]: abrogated | peritoneal IL-1β and IL-6 production ([4]; metformin 0, 10, 50 mg/kg 30 min prior to i.p. alum): dose-dependent decline | peritoneal TNF production ([4]; metformin 10 or 50 mg/kg 30 min prior to i.p. alum): no effect | ATP or nigericin induced decrease of mitochondrial membrane potential and increase of mtROS [5, 13]: blunted both responses | drop in ATP concentration ([5]; LPS-primed versus non-stimulated macrophages): larger drop | mitochondrial membrane potential ([5]; non-stimulated macrophages, metformin alone): decreased | inhibition of LPS-induced mtDNA synthesis by EdU-labelling [6, 14]: confirmed | LPS-stimulated mtDNA synthesis [6, 13]: strongly inhibited | generation of cytoplasmic Ox-mtDNA ([6]; LPS-primed macrophages challenged with ATP or nigericin, metformin): blocked generation | effect of AMPKα1 silencing on LPS-stimulated mtDNA synthesis and its inhibition by metformin ([6]; shPrkaa1 BMDM): no effect | POLγ activity ([7]; lysates of LPS-stimulated macrophages, assay mix lacking exogenous ATP): decreased | effect of AMPKα1 deficiency on POLγ expression or activity ([7]; lysates of metformin treated LPS stimulated BMDM): no effect | POLγ activity ([7]; lysates of metformin treated LPS-stimulated macrophages, addition of ATP at 10 mM): fully restored | protection from LPS-induced ARDS ([8]; 10 mg/kg i.p. three consecutive days): modest protective effect | protection from LPS-induced ARDS ([8]; 50 mg/kg i.p. three consecutive days): strong protection | IL-1β and IL-6 in BALF ([8]; 50 mg/kg prophylactic): decreased | TNF in BALF ([8]; 50 mg/kg prophylactic): no effect | collagen buildup ([8]; 50 mg/kg prophylactic): abrogated | infiltration of inflammatory cells into bronchioles, vascular bed and lung parenchyma ([8]; 50 mg/kg prophylactic): inhibited | macrophage and neutrophil infiltration ([8]; 50 mg/kg prophylactic, F4/80 and MPO staining): strongly inhibited | septa thickening ([8]; 50 mg/kg prophylactic, lung histology): prevented | c/EBPβ activation and IL-6 secretion to BALF [8, 15]: did inhibit | lung pathology or IL-1β secretion [8, 15]: did not result in noticeable improvement | preventive efficacy of oral metformin ([8]; drinking water 400 mg/kg starting 48 hrs prior to LPS): as protective as injected metformin | ASC speck formation in lung ([8]; prophylactic metformin): limited | c/EBPβ and NFAT activation in lung ([8]; prophylactic metformin): limited | IL-1β in BALF [8, 16]: decreased | macrophage and neutrophil infiltration [8, 16]: inhibited | infection-associated loss of body weight ([9]; day 2 post-inoculation): slowed down | immune cell infiltration, alveolar wall thickening and c/EBPβ activation ([9]; hACE2 Tg mice, 50 mg/kg i.p. from 2 days before infection, 6 days post-infection): reduced | macrophages with ASC specks in lungs ([9]; hACE2 Tg mice, 50 mg/kg, day 6 post-infection): almost none | expression of CMPK2 [10, 14]: no effect | POLγ expression ([10]; BMDM, metformin): no effect | AMPK phosphorylation ([10]; BMDM, metformin 0.5 mM 16 h): increased | p38 or JNK MAP kinase activation ([10]; BMDM, metformin 0.5 mM 16 hrs, LPS 30 min): blunted | nuclear translocation of NFAT family members and c/EBPb ([10]; BMDM, metformin 0.5 mM 16 hrs, LPS 4 hrs): decreased | LPS-induced p65/RelA nuclear translocation or phosphorylation ([10]; BMDM, metformin 0.5 mM overnight, LPS): did not interfere | STAT1 or STAT3 phosphorylation ([10]; BMDM, metformin pretreatment, LPS): did not inhibit | recruitment of DRP1 to mitochondria ([10]; LPS primed cells): enhancing it | recruitment of DRP1 to mitochondria ([10]; LPS+ATP challenged macrophages): not affecting it | recruitment of p62 to mitochondria ([10]; LPS-primed cells not ATP exposed): enhanced | recruitment of p62 to mitochondria ([10]; after LPS+ATP stimulation): did not affect | concentration at 1 hr [11]: 440 ± 389 ng/mL | circulating concentrations [12]: equally low
